# Reference: the NIST ThermoML archive (doi:10.1021/je400576e)
# ± gives the expanded uncertainty stated by the source.
# Settings: for viscosity / mass density: 101 kPa, Liquid; for mass density: Vibrating tube method
Compound,surface tension liquid-gas (293.15 K) [mN/m],viscosity (293.15 K) [mPa·s],mass density (293.15 K) [kg/m3],surface tension liquid-gas (298.15 K) [mN/m],viscosity (298.15 K) [mPa·s],mass density (298.15 K) [kg/m3],surface tension liquid-gas (303.15 K) [mN/m],viscosity (303.15 K) [mPa·s],mass density (303.15 K) [kg/m3],surface tension liquid-gas (313.15 K) [mN/m],viscosity (313.15 K) [mPa·s],mass density (313.15 K) [kg/m3],surface tension liquid-gas (323.15 K) [mN/m],viscosity (323.15 K) [mPa·s],mass density (323.15 K) [kg/m3],surface tension liquid-gas (333.15 K) [mN/m],viscosity (333.15 K) [mPa·s],mass density (333.15 K) [kg/m3]
CCCO [propan-1-ol],23.67 ± 0.72,2.2 ± 0.28,804 ± 5,23.31 ± 0.72,1.99 ± 0.26,800.1 ± 5.1,22.81 ± 0.7,1.73 ± 0.22,796 ± 5,22.19 ± 0.69,1.38 ± 0.18,788 ± 5,21.34 ± 0.67,1.12 ± 0.15,780 ± 5,20.66 ± 0.65,0.91 ± 0.12,
"COP(=O)([O-])OC.Cn1cc[n+](C)c1 [1,3-dimethylimidazolium dimethylphosphate]",47.78 ± 1.5,381.22 ± 65,1254 ± 9,46.98 ± 1.5,336.74 ± 56,1250 ± 9,46.21 ± 1.4,221.41 ± 34,1247 ± 9,44.89 ± 1.4,178.66 ± 26,1240 ± 9,42.67 ± 1.4,147.95 ± 21,1233 ± 9,41.99 ± 1.3,133.73 ± 19,1230 ± 8
CC(C)O [propan-2-ol],21.28 ± 0.67,2.41 ± 0.31,786 ± 5,20.94 ± 0.66,2.06 ± 0.27,781 ± 5,20.54 ± 0.65,1.79 ± 0.23,777 ± 5,19.97 ± 0.64,1.35 ± 0.17,768 ± 5,18.87 ± 0.61,1.03 ± 0.13,759 ± 5,18.11 ± 0.59,0.82 ± 0.11,750 ± 5
CCOP(=O)([O-])OCC.CCn1cc[n+](C)c1 [1-ethyl-3-methylimidazolium diethyl phosphate],34.78 ± 1.3,537.03 ± 99,1151 ± 10,34.46 ± 1.3,320.89 ± 53,1146 ± 9,34.19 ± 1.2,284.34 ± 46,1141 ± 9,33.54 ± 1.2,150.96 ± 22,1130 ± 9,33.15 ± 1.2,90.02 ± 12,1116 ± 9,32.81 ± 1.2,58.02 ± 7.5,1103 ± 9
